# Test results: patent US8710071B2, “Compounds, compositions and methods for reducing lipid levels” (CVI Pharmaceuticals Limited, priority 2008, dated 2014)
# “Also recorded” adds a separate entry of the source.
# Experiments:
# HepG2 cells = assay: DiI-LDL uptake (LDLR ligand uptake activity) in HepG2 cells; assay type: cell-based, human; details: for Activity on DiI-LDL uptake: 20 hours; for Activity in LDL uptake at 40 uM (relative to control): 20 hours (second symbol of the cell); for Activity in LDL uptake at 10 uM (relative to control): 20 hours (first symbol of the cell)
# Experimental: HepG2 cells (2×10^5 cells/well) in 24-well culture plates were treated with various compounds at indicated concentrations for 20 hours. The fluorescent 1.1′-dioctadecyl-3,3,3′,3′-tetramethylindocarbocyanin perchlorate (DiI-LDL) (Biomedical Technologies, Stoughton, Mass.) at a concentration of 2 μg/mL was added to cells at the end of treatment. After 4 hours, the medium was removed, cells were washed with cold PBS, and were examined immediately under a fluorescent microscope (Nikon) at 200× amplification. The fluorescent intensity in compound-treated cells was compared to that in untreated control cells. […] In these experiments berberine chloride was used for comparison.
# The combined beneficial effects of these novel compounds on elevation of LDLR mRNA levels likely through the mechanism of mRNA stabilization and their inhibitory activity towards PCSK9, the secreted protease that degrades LDLR protein, result in strong increases in LDL ligand uptake activity through increased receptor surface abundance. […] Briefly, HepG2 cells (2×10^5 cells/well) in 24-well culture plates were treated with various compounds at 10 and 40 uM concentrations for 20 hours. The fluorescent 1.1′-dioctadecyl-3,3,3′,3′-tetramethylindocarbocyanin perchlorate (DiI-LDL) (Biomedical Technologies, Stoughton, Mass.) at a concentration of 2 μg/ml was added to cells at the end of treatment. After 4 hours, the medium was removed; cells were washed with cold PBS, and were examined immediately under a fluorescent microscope (Nikon) at 200× amplification. The fluorescent intensity in compound-treated cells was compared to that in untreated control cells. […]
# LDLR mRNA [1] = assay: LDLR mRNA expression in HepG2 cells, semi-quantitative RT-PCR; assay type: cell-based, human; details: indicated doses, 8 hours, semi-quantitative RT-PCR (FIG. 3)
# Experimental: HepG2 cells obtained from American Tissue Culture Collection (Manassas, Va., USA) were seeded in 6-well culture plates at a density of 0.8×10^6 cells/well cultured in EMEM containing 0.5% FBS and were treated with each purified compound at indicated doses for 8 hours. Total RNA was isolated, and 2 μg per sample was reverse transcribed with random primers using M-MLV (Promega) at 37° C. for 1 hour. PCR was carried out at 94° C. for 30 sec, 60° C. for 30 sec, and 72° C. for 30 sec with initial activation of the enzyme at 94° C. for 1 minute. Thirty cycles were performed for LDLR and GAPDH. PCR was performed using primers HLDLR-up and HLDLR-lo for LDLR and primers HGAPDH-up and HGAPDH-lo for GAPDH. The PCR products were separated on a 1% agarose gel and the band intensity was quantitated. LDLR mRNA levels were corrected by measuring GAPDH mRNA levels.
# Specific stereochemical requirements of +1-THP in the upregulation of LDLR mRNA expression were determined by a similar experiment. HepG2 cells were treated with the pure 14R-(+)-THP or the pure 14S-(−)-THP at the indicated concentrations for 24 hours. The levels of LDLR mRNA and GAPDH mRNA in untreated and the compound-treated HepG2 cells were assessed by semi-quantitative RT-PCR.
# ERK = ERK activation in HepG2 cells, Western blot with anti-phosphorylated ERK; assay type: cell-based, human; details: 20 μg/mL, 0.5, 2, or 8 hours (FIG. 5)
# Experimental: HepG2 cells cultured in 60-mm dishes were treated with various compounds at a concentration of 15 μg/ml for 2 hours. Total cell lysate was isolated and 50 μg of protein was separated on SDS-PAGE and transferred to nitrocellulose membrane.
# HepG2 cells were treated with 20 μg/mL 14R,13S-(+)-CRDL and 14R-(+)-THP respectively for 0.5, 2, or 8 hours. Cells were then lysed. After protein quantitation using the BCA™ protein assay reagent (PIERCE), 50 μg protein from each sample was subjected to SDS-PAGE, followed by Western blotting using anti-phosphorylated ERK (Cell Signaling) and subsequently reprobed with antibody against β-actin.
# [2] = tested on: acetyl coenzyme A carboxylase (ACC); assay: ACC phosphorylation in HepG2 cells, Western blot; assay type: cell-based, human; details: 20 μg/ml, 0.5, 2, or 8 hours (FIG. 6)
# Experimental: HepG2 cells were treated with 20 μg/ml14R-(+)-THP for 0.5, 2, or 8 hours. Cells were lysed, and 50 μg protein from each sample was subjected to SDS-PAGE, followed by Western blotting using anti-phosphorylated ACC (Cell Signaling) and subsequently reprobed with antibody against β-actin.
# Cells were harvested after 1, 2, and 3 days treatment and western blot analysis was conducted using antibodies directed to LDLR and PCSK9. Chicken anti-LDLR was purchased from Abeam, the mouse anti-PCSK9 was purchased from Cayman Chemicals, and anti-pACC was purchased from Cell Signaling.
# hyperlipidemic rabbits = assay: Lipid lowering effects and blood chemistry in hyperlipidemic rabbits; details: day 14, doses increased after day 7 to 60 mg/kg (128(+)/128(−)) and 10 mg/kg (SMV/ATV), mean ± SD
# Experimental: Forty-two male Japanese rabbits were fed the cholesterol enriched rabbit diet for two weeks to induce hypercholesterolemia. […] Serum samples were collected at day 0 (before the drug treatment) and day 7. […] All tested animals were sacrified at the end of a total of 14 days treatment and serum samples were analyzed for TC, LDL-C, TG, and HDL-C. In addition to lipid profiles, a number of biochemical parameters were also analyzed to aseesee the effects of drug treatments on liver function, muscle function, kidney function, and heart function.
# [3] = tested on: Wister male rats under a high fat and high cholesterol diet; assay: Lipid lowering effects of (14R,13S)-CRDL hydrochloride salt in Wister rats; assay type: in vivo, rat; details: 75 mg/kg daily orally
# Experimental: Male Wister rats were used as an animal model to examine the in vivo effects of (14R,13S)—CRDL in plasma lipid levels.
# In one experiment, 18 Wister male rats under a high fat and high cholesterol diet were divided into 2 groups. One group was given (14R,13S)—CRDL hydrochloride salt orally at a daily dose of 75 mg/kg by an orogastric tube for 4 weeks, and the control group received daily treatment of equal amount of vehicle (0.1 M sodium phosphate, pH 3.5). Serum lipid levels were measured weekly.
# At the end of treatment, Rats were sacrificed and blood and sera were collected to measure several critical parameters for liver function and kidney function. […] Kidney function and blood glucose level were not changed by the treatment.
# LDLR mRNA [4] = assay: LDLR mRNA expression in HepG2 cells, quantitative real-time RT-PCR; assay type: cell-based, human; details: Homo sapiens, 24 hours, mean ± s.d.; for fold induction at 10 µM: read-out: Activity on LDLR mRNA at 10 uM (fold of control); for fold induction at 40 µM: read-out: Activity on LDLR mRNA at 40 uM (fold of control)
# Experimental: Activities of some compounds of Formulas I, II, III, and IV on LDLR mRNA expression were determined. HepG2 cells were treated with new compounds individually at a dose less than or equal to 10 μM for 24 hours. Total RNA was harvested for quantitative real-time RT-PCR analysis using the method described in Example 16B. […] In these experiments, berberine chloride was included for comparison.
# The time-dependent effects of compounds of Formula I, II, III, and IV on the upregulation of LDLR mRNA and the inhibition of PCSK9 mRNA expression were examined (Horton J D, Cohen J C, Hobbs H I T. “Molecular biology of PCSK9: its role in LDL metabolism” TRENDS in Biochemical Sciences 2007; 32:71-77). HepG2 cells were treated with new compounds individually at 20 uM dose for 1 day, 2 day, and 3 days. Total RNA was isolated and 2 μg was used to generate cDNA in a reaction containing random primers and M-MLV at 37° C. for 1 hour in a volume of 25 μl. Real-time PCR was performed on the cDNA using MCEP REALPLEX 2 SYSTEM (Eppendorf) and Universal MasterMix (Applied Biosystems). Human LDLR, PCSK9, and GAPDH Pre-Developed TaqMan Assay Reagents (Applied Biosystems) were used to assess the levels of mRNA expressions in HepG2. The levels of LDLR mRNA or PCSK9 mRNA were normalized to that of GAPDH. Each RNA samples was assayed in triplicate. The abundance of LDLR mRNA or PCSK9 mRNA in untreated cells was defined as 1, and the amounts of LDLR mRNA or PCSK9 from compound-treated cells were plotted relative to that value (FIG. 10). The data shown are mean±s.d.
# Total RNA was harvested for quantitative real-time RT-PCR analysis using method described in Examples 16B.
# The effects of 23 compounds on the mRNA expressions of LDLR and PCSK9 were examined using quantitative real-time RT-PCR assays. HepG2 cells were treated with various compounds at 10 and 40 uM concentrations for 24 hours. Total RNA was isolated and […] was used to generate cDNA in a reaction containing random primers and M-MLV at 37° C. for 1 h in a volume of 25 μl. Real-time PCR was performed on the cDNA using MCEP REALPLEX 2 SYSTEM (Eppendorf) and Universal MasterMix (Applied Biosystems). Human LDLR, PCSK9, and GAPDH Pre-Developed TaqMan Assay Reagents (Applied Biosystems) were used to assess the levels of mRNA expressions in HepG2. The levels of LDLR and PCSK9 mRNA were normalized to that of GAPDH. Each RNA samples was assayed in duplicate. The fold activity was calculated by dividing mRNA abundance in compound treated cells with that of control.
structure (smiles),measurement,setting,value
"COc1cc2c(cc1OC)[C@H]1[C@@H](C)c3ccc(OC)c(OC)c3CN1CC2 [14R,13S-(+)-CRDL, 14R,13S-(+)-corydaline]",Activity on DiI-LDL uptake,HepG2 cells; B: compound dose ≦ 40 μM,++
same,LDLR mRNA expression,LDLR mRNA [1],potent and dose-dependent effects
same,activation of ERK,ERK,activation of ERK
"COc1cc2c(cc1O)CCN1Cc3c(ccc(OC)c3OC)CC21 (stereo not drawn) [14R-(+)-CRPM, 14R-(+)-corypalmine]",Activity on DiI-LDL uptake,HepG2 cells; A: compound dose ≦ 10 μM,++
same,LDLR mRNA expression,LDLR mRNA [1],potent and dose-dependent effects
"COc1cc2c(cc1OC)[C@H]1Cc3ccc(OC)c(OC)c3CN1CC2 [14R-(+)-THP, 14R-(+)-tetrahydropalmatine]",Activity on DiI-LDL uptake,HepG2 cells; B: compound dose ≦ 40 μM,++
same,LDLR mRNA expression,LDLR mRNA [1],potent and dose-dependent effects
same,activation of ERK,ERK,activation of ERK
same,ACC phosphorylation,[2],induction of ACC phosphorylation
"CC(C)c1c(C(=O)Nc2ccccc2)c(-c2ccccc2)c(-c2ccc(F)cc2)n1CC[C@@H](O)C[C@@H](O)CC(=O)O [ATV, atorvastatin, reference compound]","serum total cholesterol levels, treatment day 14",hyperlipidemic rabbits,33.9 ± 6.5
"COc1cc2c(cc1OC)[C@H]1[C@@H](C)c3ccc(OC)c(OC)c3CN1CC2 [CRDL, corydaline]",serum levels of AST and ALT (liver function),"[3]; end of 4-week treatment, versus control group, 75 mg/kg",liver function was not damaged; also recorded: statistically lower
same,adverse effects,[3]; entire 4-week treatment,No any adverse effects were observed
"COc1ccc2c(c1)CCN1Cc3c(ccc(OC)c3OS(=O)(=O)c3ccccc3)CC21 (stereo not drawn) [Compound 115, 3,10-Dimethoxy-5,6,7,8,13,13a-hexahydroisoquinolino[2,1-b]isoquinolin-9-yl benzenesulfonate]",fold induction at 10 µM,LDLR mRNA [4],0.51 ± 0.11
same,fold induction at 40 µM,LDLR mRNA [4],2.65 ± 0.06
same,Activity in LDL uptake at 40 uM (relative to control),HepG2 cells,+++
"COc1ccc2c(c1OS(=O)(=O)c1ccccc1)CN1CCc3cc4c(cc3C1C2)OCCO4 (stereo not drawn) [Compound 116, 11-Methoxy-6,7,8,9,14,14a-hexahydro-2H,3H-1,4-dioxano[5,6-g]isoquinoluio[3,2-a]isoquinolin-10-yl benzenesulfonate]",fold induction at 10 µM,LDLR mRNA [4],1.41 ± 0.04
same,fold induction at 40 µM,LDLR mRNA [4],7.19 ± 1.29
"COc1ccc2c(c1OS(=O)(=O)c1ccccc1)CN1CCc3cc(C)ccc3C1C2 (stereo not drawn) [Compound 121, 10-Methoxy-3-methyl-5,6,7,8,13,13a-hexahydroisoquinolino[2,1-b]isoquinofin-9-yl benzenesulfonate]",Activity in LDL uptake at 10 uM (relative to control),HepG2 cells,+++
same,Activity in LDL uptake at 40 uM (relative to control),HepG2 cells,+
"COc1cc2c(cc1C(=O)NCCO)C1Cc3ccc(OC)c(OS(=O)(=O)c4ccccc4)c3CN1CC2 (stereo not drawn) [Compound 137, 2-[N-(2-hydroxyethyl)carbamoyl]-3,10-dimethoxy-5,6,7,8,13,13a-hexahydroisoquinolino[2,1-b]isoquinolin-9-yl benzenesulfonate]",Activity in LDL uptake at 10 uM (relative to control),HepG2 cells,+
same,Activity in LDL uptake at 40 uM (relative to control),HepG2 cells,+++
"COc1cc2c(cc1OCCO)CCN1Cc3c(ccc(OC)c3OS(=O)(=O)c3ccccc3)CC21 (stereo not drawn) [Compound 138, 3-(2-Hydroxyethoxy)-2,10-dimethoxy-5,6,7,8,13,13a-hexahydroisoquinolino[2,1-b]isoquinolin-9-yl benzenesulfonate]",Activity in LDL uptake at 10 uM (relative to control),HepG2 cells,+
same,Activity in LDL uptake at 40 uM (relative to control),HepG2 cells,+++
"CCC(C)(C)C(=O)O[C@H]1C[C@@H](C)C=C2C=C[C@H](C)[C@H](CC[C@@H]3C[C@@H](O)CC(=O)O3)[C@H]21 [SMV, simvastatin, reference compound]","serum total cholesterol levels, treatment day 14",hyperlipidemic rabbits,26.2 ± 5.5
